Laboratory results as given in US11771730B2, “Combination of Rhodiola and Astragalus for the treatment of neurodegenerative diseases” (HUMAN BY NATURE, priority 2018, dated 2023).

Legend:
[1] = system: differentiated SH-SY5Y (cells) exposed to Aftin-5; assay: Curative test, Alzheimer model induced by Aftin-5 (10 μM): neurite length and cell counts; assay type: cell-based, human; details: 10 μM Aftin-5 for 48 hours
Protocol: All tests were performed in three technical replicates using 96-well microplates. After inoculation, SH-SY5Y cells were differentiated by exposure to retinoic acid (10 μM) for 4 days.
After each test, the cells were fixed using a mixture of methanol and acetone at room temperature for 5 minutes, before staining the nuclei with Hoechst and immunostaining the B3 tubulin (secondary antibody conjugated to an Alexa 488 fluorochrome).
Models of neurodegenerative diseases can be established in the laboratory using differentiated neuronal cell lines. Using chemical inducers (Aftin-5, in this case), a model of Alzheimer's disease can be obtained with the human neuroblastoma cell line SH-SY5Y. The neuroprotective and curative properties of the combination of extracts are evaluated following neurotoxic aggression by counting neurons and measuring the length of neurites.
The cells were exposed for 2 days with 10 μM of Aftin-5 alone. […] After fixation and labeling, neurite outgrowth and cell counts were evaluated using MetaXpress (Molecular Devices).
The images were obtained using an ImageXpress® Micro XLS (Molecular Devices) automated microscope with a 20× objective. […] Four fields per well were recorded and analyzed individually.
The images were analyzed using MetaXpress (Molecular Devices) software.

[2] = system: DNA repair systems in HepG2 cells; assay: DNA repair (Excision/Resynthesis, BER and NER) on lesion plasmid chip with extracts of treated HepG2 cells; assay type: cell-based; details: EMS alone

SMILES	neurite length compared to the control (inducer alone) [1]	effect of genotoxic on repair of photoproducts (CPD-64), Nucleotide Excision Repair (NER) [2]	effect of genotoxic on Basic Excision Repair (BER) ([2]; at least at the highest concentration tested (1 mM))
CC[C@H](CO)Nc1nc(N(C)c2ccccc2)c2ncn(C(C)C)c2n1 [Aftin-5]	significant reduction in neurite length		
CCOS(C)(=O)=O [EMS, ethyl methane sulfonate]		not affected	exclusively stimulates Basic Excision Repair (BER)
